Patent US20190124959A1, “SYSTEMS, METHODS, AND COMPOSITIONS RELATED TO USING NON-LIVE-BACTERIA PREPARATIONS TO PROMOTE FOOD SAFETY AND PRESERVATION” (priority 2016, published 2019)
Like-named read-outs stand apart in the source and are kept apart here.

System: E. coli (strains ATCC BAA 1427, 1428, 1429, 1430 and 1431)
Type: cell-based
Parameters: key: + = Growth; −1 = Inhibition; − = No Growth
Procedure: A microtiter experiment was conducted to evaluate the pathogen killing effect of the following pathogen killing agents: (1) about 100 μL of non-live-bacteria concentrate having dead bacteria alone (obtained from Example 8), (2) a blend of about 50 μL of non-live-bacteria concentrate having dead bacteria (obtained from Example 8), and about 50 μL of approximately 0.1 M lactic acid, or (3) about 100 μL of approximately 0.1 M lactic acid alone when added into Swanson® chicken broth and a source of pathogens.
About 100 μL chicken broth was added into microtiter wells 1 through 12. The pathogen killing agents were added at about 100 μL into wells 1 and 2. About 100 μL from the mixture of pathogen killing agent and chicken broth were then added to well 3 and then repeated thereafter to create the following dilutions, by volume, until well 11: 1:1, 1:2, 1:4, 1:8, 1:16, 1:32, 1:64, 1:128, 1:256, 1:512, and 1:1024. Next, into all microtiter wells, about 50 μL of a solution containing E. coli (strains ATCC BAA 1427, 1428, 1429, 1430 and 1431) were added such that an approximately 1×10^5 cfu/gram concentration of E. coli in each well was obtained. Well 12 served as the positive control by having no pathogen killing agent added. Microtiter plates containing the wells described above were then placed into an incubator at about 35° C. for either about 24 or about 48 hours. After the appropriate incubation time, microtiter plates were removed from the incubator and the color indicator (about 50 μL iodonitrotetrazolium salt reagent) was added into each well and the microtiter plate placed back into the incubator at about 35° C. for about an additional 4 hours to produce the desired color change reaction. Upon removal from the incubator, the color change and pH in each well were recorded.

## CC(O)C(=O)O (stereo not shown) [Lactic Acid, lactic acid]
Dilution 1:1, After Incubating at 35° C. for 24 hours
  Microtiter well result, E. coli growth: −
Dilution 1:1, After Incubating at 35° C. for 48 hours
  Microtiter well result, E. coli growth: −
Dilution 1:2, After Incubating at 35° C. for 24 hours
  Microtiter well result, E. coli growth: −
Dilution 1:2, After Incubating at 35° C. for 48 hours
  Microtiter well result, E. coli growth: −
Dilution 1:4, After Incubating at 35° C. for 24 hours
  Microtiter well result, E. coli growth: −
Dilution 1:4, After Incubating at 35° C. for 48 hours
  Microtiter well result, E. coli growth: +
Dilution 1:8, After Incubating at 35° C. for 24 hours
  Microtiter well result, E. coli growth: −
Dilution 1:8, After Incubating at 35° C. for 48 hours
  Microtiter well result, E. coli growth: +
Dilution 1:16, After Incubating at 35° C. for 24 hours
  Microtiter well result, E. coli growth: −
Dilution 1:16, After Incubating at 35° C. for 48 hours
  Microtiter well result, E. coli growth: +
Dilution 1:32, After Incubating at 35° C. for 24 hours
  Microtiter well result, E. coli growth: −
Dilution 1:32, After Incubating at 35° C. for 48 hours
  Microtiter well result, E. coli growth: +
Dilution 1:64, After Incubating at 35° C. for 24 hours
  Microtiter well result, E. coli growth: −
Dilution 1:64, After Incubating at 35° C. for 48 hours
  Microtiter well result, E. coli growth: +
Dilution 1:128, After Incubating at 35° C. for 24 hours
  Microtiter well result, E. coli growth: +
Dilution 1:128, After Incubating at 35° C. for 48 hours
  Microtiter well result, E. coli growth: −1
Dilution 1:256, After Incubating at 35° C. for 24 hours
  Microtiter well result, E. coli growth: +
Dilution 1:256, After Incubating at 35° C. for 48 hours
  Microtiter well result, E. coli growth: +
Dilution 1:512, After Incubating at 35° C. for 24 hours
  Microtiter well result, E. coli growth: +
Dilution 1:512, After Incubating at 35° C. for 48 hours
  Microtiter well result, E. coli growth: +
Dilution 1:1024, After Incubating at 35° C. for 24 hours
  Microtiter well result, E. coli growth: +
Dilution 1:1024, After Incubating at 35° C. for 48 hours
  Microtiter well result, E. coli growth: +
